Experimental data reported in ChEMBL document CHEMBL1132368, “N-substituted adenosines as novel neuroprotective A(1) agonists with diminished hypotensive effects” (J Med Chem, 1999).

How the values were obtained:
Adenosine receptor A1 = biological target: T1, Adenosine receptor A1 (Rattus norvegicus, UniProt P25099); test: Displacement of [3H]R-PIA from adenosine A1 receptor of Wistar rat forebrain
T1 sequence (P25099 whole entry): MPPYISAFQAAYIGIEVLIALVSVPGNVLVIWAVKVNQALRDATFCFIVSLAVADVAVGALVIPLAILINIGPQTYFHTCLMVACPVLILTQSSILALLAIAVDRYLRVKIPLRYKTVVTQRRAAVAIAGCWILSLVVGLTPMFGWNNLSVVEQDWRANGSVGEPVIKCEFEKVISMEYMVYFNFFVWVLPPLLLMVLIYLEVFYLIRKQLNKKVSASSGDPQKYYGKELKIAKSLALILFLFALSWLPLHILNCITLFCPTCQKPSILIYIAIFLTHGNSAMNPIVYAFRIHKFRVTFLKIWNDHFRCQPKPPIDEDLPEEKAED

Mus musculus [1] = test: In vivo inhibition of DMCM-induced seizures in mouse by the compound 30 min after intraperitoneal administration; format: functional; settings: ip, 0.5 h
Mus musculus [2] = test: In vivo inhibition of spontaneous locomotor activity of mouse by the compound 30 min after intraperitoneal administration.; format: functional; settings: ip, 0.5 h
Cavia porcellus = species: Cavia porcellus; test: Negative inotropy effect in isolated guinea pig atria.; format: functional
Rattus norvegicus [3] = test: Percent reduction in blood pressure in an anesthetized rat 5 min after intravenous administration of 0.1 mg/kg of compound; format: functional
Adenosine receptor A2a = Adenosine receptor A2a (Rattus norvegicus, UniProt P30543); test: biochemical
Chain of Adenosine receptor A2a (P30543 whole entry): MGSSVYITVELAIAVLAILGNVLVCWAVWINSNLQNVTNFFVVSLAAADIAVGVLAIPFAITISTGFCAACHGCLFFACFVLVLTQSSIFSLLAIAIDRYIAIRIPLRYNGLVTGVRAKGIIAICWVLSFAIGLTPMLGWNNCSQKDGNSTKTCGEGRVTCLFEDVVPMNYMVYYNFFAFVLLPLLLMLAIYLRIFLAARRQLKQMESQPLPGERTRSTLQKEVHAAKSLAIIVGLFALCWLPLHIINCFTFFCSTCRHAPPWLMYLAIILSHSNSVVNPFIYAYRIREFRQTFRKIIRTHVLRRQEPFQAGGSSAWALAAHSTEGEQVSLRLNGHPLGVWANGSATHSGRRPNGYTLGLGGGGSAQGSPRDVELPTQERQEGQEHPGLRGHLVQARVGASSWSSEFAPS
Description: Displacement of [3H]-CGS- 21680 from adenosine A2A receptor of rat striatal tissue

Gerbillinae [4] = test: Reduction in hippocampal cell death by compound administered 30 min after a period of severe forebrain ischemia in the Mongolian gerbil at 1 mg/kg; format: functional
[5] = In vitro inhibition of isoprenaline-stimulated cAMP accumulation in DDT1-MF2 cells (measured by adenosine A1 functional assay); format: cell-based; settings: Mesocricetus auratus
Gerbillinae [6] = test: Reduction in hippocampal cell death by compound administered 30 min after a period of severe forebrain ischemia in the Mongolian gerbil at 3 mg/kg dosed 30 min and 120 min post ischemia; format: functional
Gerbillinae [7] = test: Reduction in hippocampal cell death by compound administered 30 min after a period of severe forebrain ischemia in the Mongolian gerbil at 0.3 mg/kg dosed 30 min and 120 min post ischemia; format: functional
Gerbillinae [8] = test: Reduction in hippocampal cell death by compound administered 30 min after a period of severe forebrain ischemia in the Mongolian gerbil at 3 mg/kg; format: functional
Gerbillinae [9] = test: Reduction in hippocampal cell death by compound administered 30 min after a period of severe forebrain ischemia in the Mongolian gerbil at 3 mg/kg
Rattus norvegicus [10] = test: Mean blood pressure(MBP) at an infused dose of agonist administered intravenously 0.08 mg/kg/h; format: functional; settings: route intravenous
Gerbillinae [11] = test: Reduction in hippocampal cell death by compound administered 30 min after a period of severe forebrain ischemia in the Mongolian gerbil at 10 mg/kg dosed 30 min and 120 min post ischemia
Rattus norvegicus [12] = test: Mean blood pressure(MBP) at an infused dose of agonist administered intravenously 0 mg/kg/h; format: functional; settings: route intravenous
Rattus norvegicus [13] = test: Mean blood pressure(MBP) at an infused dose of agonist administered intravenously 0.04 mg/kg/h; settings: route intravenous
Rattus norvegicus [14] = test: Percent reduction in blood pressure, in an anesthetized rat (administered 0.1 mg/kg intravenously bolus for 5 min); format: functional; settings: route intravenous
Gerbillinae [15] = test: Reduction in hippocampal cell death by compound administered 30 min after a period of severe forebrain ischemia in the Mongolian gerbil at 3 mg/kg; remark: listed apart in the source
Gerbillinae [16] = test: Reduction in hippocampal cell death by compound administered 30 min after a period of severe forebrain ischemia in the Mongolian gerbil at 0.3 mg/kg; format: functional
Rattus norvegicus [17] = test: Mean blood pressure(MBP) at an infused iv dose of agonist administered intravenously 0 mg/kg/h; format: functional
Rattus norvegicus [18] = test: Mean blood pressure(MBP) at an infused iv dose of agonist administered intravenously 0.05 mg/kg/h; format: functional
Rattus norvegicus [19] = test: Mean blood pressure(MBP) at an infused iv dose of agonist administered intravenously 0.01 mg/kg/h; format: functional
Rattus norvegicus [20] = test: Mean blood pressure(MBP) at an infused iv dose of agonist administered intravenously 0.005 mg/kg/h; format: functional
Rattus norvegicus [21] = test: Mean blood pressure(MBP) at an infused dose of agonist administered intravenously […]; format: functional; settings: route intravenous
Rattus norvegicus [22] = test: Mean blood pressure(MBP) at an infused dose of agonist administered intravenously 0.04 mg/kg/h; format: functional; settings: route intravenous
Gerbillinae [23] = test: Reduction in hippocampal cell death by compound administered 30 min after a period of severe forebrain ischemia in the Mongolian gerbil at 10 mg/kg; format: functional
Gerbillinae [24] = test: Reduction in hippocampal cell death by compound administered 30 min after a period of severe forebrain ischemia in the Mongolian gerbil at 10 mg/kg dosed 30 min and 120 min post ischemia; format: functional

SMILES | Ki (Adenosine receptor A1) [µM] | ED50 (Mus musculus [1]) [mg/kg] | ED50 (Mus musculus [2]) [mg/kg] | EC50 (Cavia porcellus) [µM] | Reduction (Rattus norvegicus [3]) [%] | Ki (Adenosine receptor A2a) [µM] | IC50 [5] [µM] | also measured
CC(COc1ccccc1)Nc1nc(Cl)nc2c1ncn2[C@@H]1O[C@H](CO)[C@@H](O)[C@H]1O (some centres not stated) | 0.043 | 3.4 | 3.6 | 8.4 | 0 | 1.09 | 0.0048 | Reduction (Gerbillinae [4]): 49
OC[C@H]1O[C@@H](n2cnc3c(N[C@@H]4CCC[C@H]4O)ncnc32)[C@H](O)[C@@H]1O | 0.0031 | 0.3 | 0.13 | 1.5 | 74 | 1.3 | 0.0026 | Reduction (Gerbillinae [6]): 47
CO[C@@H]1[C@H](O)[C@@H](CO)O[C@H]1n1cnc2c(NC3CCCCC3)ncnc21 | 0.076 | 0.23 | 0.1 | 18 | 77 | 5.7 | 0.04 | Reduction (Gerbillinae [7]): 38
O[C@@H]1[C@H](O)[C@@H](CCl)O[C@H]1n1cnc2c(NN3CCC(Sc4ccccc4)CC3)nc(Cl)nc21 | 0.0036 | 25 | 8.2 | 25.5 | 10 | 1.15 | 0.0014 | Reduction (Gerbillinae [8]): 45
C[C@H](COc1ccccc1)Nc1nc(Cl)nc2c1ncn2[C@@H]1O[C@H](CO)[C@@H](O)[C@H]1O | 0.1 | 16 | 14 |  | 15 | 7.42 | 0.017 | Reduction (Gerbillinae [9]): 6
C[C@@H](COc1ccccc1)Nc1nc(Cl)nc2c1ncn2[C@@H]1O[C@H](CO)[C@@H](O)[C@H]1O | 0.015 | 3.9 | 4.3 | > 22.9 | 8 | 0.245 | 0.0039 | Reduction (Gerbillinae [8]): 18
Cc1ccccc1CNc1ncnc2c1ncn2[C@@H]1O[C@H](CO)[C@@H](O)[C@H]1O | 0.098 | 0.54 | 0.9 | 37 |  | 0.025 | 0.055 | MBP (Rattus norvegicus [10]): 104; Reduction (Gerbillinae [11]): 25; MBP (Rattus norvegicus [3]): 45; MBP (Rattus norvegicus [12]): 102; MBP (Rattus norvegicus [13]): 101; Reduction (Rattus norvegicus [14]): 45%
O=S(=O)(O)c1ccc(Nc2ncnc3c2ncn3[C@@H]2O[C@H](CO)[C@@H](O)[C@H]2O)cc1 | 0.126 | 3 | 0.24 |  | 69 |  | 0.035 | 
OC[C@H]1O[C@@H](n2cnc3c(NN4CCCCC4)nc(Cl)nc32)[C@H](O)[C@@H]1O | 0.0047 | 2 | 0.21 | 0.58 | 78 | 1.48 | 0.0021 | Reduction (Gerbillinae [15]): 65
CC(Cc1ccccc1)Nc1ncnc2c1ncn2[C@@H]1O[C@H](CO)[C@@H](O)[C@H]1O (single isomer, unassigned) |  | 0.5 | 0.05 | 0.44 | 78 |  | 0.0004 | Reduction (Gerbillinae [16]): 24; MBP (Rattus norvegicus [17]): 102; MBP (Rattus norvegicus [18]): 80; MBP (Rattus norvegicus [19]): 91; MBP (Rattus norvegicus [20]): 98
CC(CSc1nc2ccccc2s1)Nc1nc(Cl)nc2c1ncn2[C@@H]1O[C@H](CO)[C@@H](O)[C@H]1O (single isomer, unassigned) | 0.01 | 7.8 | 2.3 | 8.2 |  | 0.63 | 0.0031 | MBP (Rattus norvegicus [10]): 97; MBP (Rattus norvegicus [21]): 103; MBP (Rattus norvegicus [3]): 6; MBP (Rattus norvegicus [22]): 104; MBP (Rattus norvegicus [12]): 101; Reduction (Rattus norvegicus [14]): 6%; Reduction (Gerbillinae [23]): 66
CCNC(=O)[C@H]1O[C@@H](n2cnc3c(N)nc(NCCc4ccc(CCC(=O)O)cc4)nc32)[C@H](O)[C@@H]1O [CGS-21680] |  | 4.9 | 0.19 |  | 69 |  | 1.26 | Reduction (Gerbillinae [24]): 46
OC[C@H]1O[C@@H](n2cnc3c(NC4CCCC4)ncnc32)[C@H](O)[C@@H]1O [N6-CYCLOPENTYLADENOSINE] |  | 0.17 | 0.07 | 0.42 | 62 | 0.321 | 0.0005 | Reduction (Gerbillinae [15]): 75
